Results reported in PubChem BioAssay AID248 (DTP/NCI, 2004).
“And” between values parts separate entries of the source, which are not always exact repeats. Identical values can stand only once. Toxic doses and inconclusive results are not listed. Cut-off read from the data, not from the text of the source: active = T/C of 150% or more; inactive = T/C below 125%.

System: L1210 leukemia ip in BDF1 mice, survival T/C
Assay: NCI In Vivo Anticancer Drug Screen. Data for tumor model L1210 Leukemia (intraperitoneal) in B6D2F1 (BDF1) mice
Conditions: endpoint: mean survival time, higher = longer survival
Procedure, shortened: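 Transplantable tumor model; survival measured in treated vs vehicle control mice. Value = treated/control.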

[1] = dose: 100.0 mg/kg/injection, schedule: Q01DX001 (ip), vehicle: saline with Tween-80
[2] = dose: 100.0 mg/kg/injection, schedule: Q01DX009 (ip), vehicle: saline with Tween-80
[3] = dose: 100.0 mg/kg/injection, schedule: Q04DX003 (ip), vehicle: saline with Tween-80
[4] = dose: 200.0 mg/kg/injection, schedule: Q01DX001 (ip), vehicle: saline with Tween-80
[5] = dose: 200.0 mg/kg/injection, schedule: Q01DX009 (ip), vehicle: saline with Tween-80
[6] = dose: 200.0 mg/kg/injection, schedule: Q04DX003 (ip), vehicle: saline with Tween-80
[7] = dose: 400.0 mg/kg/injection, schedule: Q01DX009 (ip), vehicle: saline with Tween-80
[8] = dose: 400.0 mg/kg/injection, schedule: Q04DX003 (ip), vehicle: saline with Tween-80
[9] = dose: 50.0 mg/kg/injection, schedule: Q01DX009 (ip), vehicle: saline with Tween-80
[10] = dose: 50.0 mg/kg/injection, schedule: Q04DX003 (ip), vehicle: saline with Tween-80
[11] = dose: 100.0 mg/kg/injection, schedule: Q01DX009 (ip), vehicle: Klucel (hydroxypropylcellulose) (HPC)
[12] = dose: 100.0 mg/kg/injection, schedule: Q04DX003 (ip), vehicle: Klucel (hydroxypropylcellulose) (HPC)
[13] = dose: 200.0 mg/kg/injection, schedule: Q04DX003 (ip), vehicle: Klucel (hydroxypropylcellulose) (HPC)

Measured: T/C

C[PH+](c1ccccc1)c1ccccc1.C[PH+](c1ccccc1)c1ccccc1.[Cl][Pd][Cl]
inactive: dose: 75.0 mg/kg/injection, schedule: Q04DX003 (ip), vehicle: saline 112 % of control | dose: 150.0 mg/kg/injection, schedule: Q04DX003 (ip), vehicle: saline 107 % of control | dose: 300.0 mg/kg/injection, schedule: Q04DX003 (ip), vehicle: saline 104 % of control

CC12CC3CC(C1)CC(NCCO)(C3)C2
inactive: dose: 10.0 mg/kg/injection, schedule: Q04DX002 (ip), vehicle: Klucel (hydroxypropylcellulose) (HPC) 87 % of control | dose: 20.0 mg/kg/injection, schedule: Q04DX002 (ip), vehicle: Klucel (hydroxypropylcellulose) (HPC) 91 % of control | dose: 40.0 mg/kg/injection, schedule: Q04DX002 (ip), vehicle: Klucel (hydroxypropylcellulose) (HPC) 91 % of control

CCOc1ccc(OCC)c(NC(=O)Nc2ccccc2Cl)c1
inactive: dose: 200.0 mg/kg/injection, schedule: Q04DX002 (ip), vehicle: saline with Tween-80 90 % of control | dose: 400.0 mg/kg/injection, schedule: Q04DX002 (ip), vehicle: saline with Tween-80 87 % of control

OC1CC2CCC(C1)N2 (configuration not stated)
inactive: dose: 75.0 mg/kg/injection, schedule: Q01DX001 (ip), vehicle: saline 95 % of control | dose: 150.0 mg/kg/injection, schedule: Q01DX001 (ip), vehicle: saline 91 % of control

CCOC(CN(Cc1ccc(OCc2ccccc2)c(OC)c1)S(=O)(=O)c1ccc(C)cc1)OCC
inactive: dose: 25.0 mg/kg/injection, schedule: Q01DX009 (ip), vehicle: water 102 % of control | dose: 50.0 mg/kg/injection, schedule: Q01DX009 (ip), vehicle: water 91 % of control | dose: 100.0 mg/kg/injection, schedule: Q01DX009 (ip), vehicle: water 105 % of control | dose: 200.0 mg/kg/injection, schedule: Q01DX009 (ip), vehicle: water 102 % of control | dose: 400.0 mg/kg/injection, schedule: Q01DX009 (ip), vehicle: water 100 % of control

CC[C@@]1(O)C[C@H](OC2CC(N(C)C)C(OC3CC(O)C(O[C@@H]4O[C@@H](C)C(=O)C=C4N)C(C)O3)C(C)O2)c2c(cc3c(c2O)C(=O)c2c(O)ccc(O)c2C3=O)[C@H]1C(=O)OC (some centres not stated)
inactive: dose: 0.05 mg/kg/injection, schedule: Q01DX009 (ip), vehicle: suspension in saline 117 % of control | dose: 0.05 mg/kg/injection, schedule: Q09DX009 (ip), vehicle: saline 104 % of control | dose: 0.1 mg/kg/injection, schedule: Q05DX005 (ip), vehicle: saline 106 % of control | dose: 0.1 mg/kg/injection, schedule: Q09DX009 (ip), vehicle: saline 106 % of control | dose: 0.2 mg/kg/injection, schedule: Q01DX009 (ip), vehicle: suspension in saline 111 % of control | dose: 0.2 mg/kg/injection, schedule: Q03DX003 (ip), vehicle: saline 118 % of control | dose: 0.2 mg/kg/injection, schedule: Q05DX005 (ip), vehicle: saline 122 % of control | dose: 0.2 mg/kg/injection, schedule: Q09DX009 (ip), vehicle: saline 111 % of control | dose: 0.4 mg/kg/injection, schedule: Q01DX001 (ip), vehicle: saline 111 % of control | dose: 0.4 mg/kg/injection, schedule: Q01DX009 (ip), vehicle: suspension in saline 100 % of control | dose: 0.4 mg/kg/injection, schedule: Q03DX003 (ip), vehicle: saline 108 % of control | dose: 0.8 mg/kg/injection, schedule: Q01DX001 (ip), vehicle: saline 118 % of control | dose: 0.8 mg/kg/injection, schedule: Q01DX009 (ip), vehicle: suspension in saline 100 % of control | dose: 1.6 mg/kg/injection, schedule: Q01DX001 (ip), vehicle: saline 113 % of control | dose: 1.6 mg/kg/injection, schedule: Q05DX005 (ip), vehicle: saline 115 % of control | dose: 1.6 mg/kg/injection, schedule: Q09DX009 (ip), vehicle: saline 104 % of control | dose: 3.2 mg/kg/injection, schedule: Q03DX003 (ip), vehicle: saline 101 % of control | dose: 3.2 mg/kg/injection, schedule: Q05DX005 (ip), vehicle: saline 118 % of control | dose: 6.4 mg/kg/injection, schedule: Q03DX003 (ip), vehicle: saline 122 % of control

O=C(Nc1cccc(Cl)c1)c1ccc2ccccc2c1O
inactive: [1] 97 % of control | [2] 106 % of control | [3] 98 % of control | [4] 93 % of control | [5] 98 % of control | [6] 96 % of control | dose: 400.0 mg/kg/injection, schedule: Q01DX001 (ip), vehicle: saline with Tween-80 97 % of control | [7] 101 % of control | [8] 96 % of control

CC(Oc1ccccc1)C(=O)NC(=S)Nc1ccc(Cl)cc1 (configuration not stated)
inactive: dose: 50.0 mg/kg/injection, schedule: Q01DX001 (ip), vehicle: saline with Tween-80 97 % of control | [9] 97 % of control and 98 % of control and 92 % of control | [10] 98 % of control | [1] 97 % of control | [2] 97 % of control and 98 % of control and 101 % of control | [3] 97 % of control | [4] 92 % of control | [6] 109 % of control

COC(=O)N1CC=CCN1C(=O)OC
inactive: dose: 100.0 mg/kg/injection, schedule: Q04DX003 (ip), vehicle: saline 94 % of control | dose: 200.0 mg/kg/injection, schedule: Q04DX003 (ip), vehicle: saline 116 % of control | dose: 400.0 mg/kg/injection, schedule: Q04DX003 (ip), vehicle: saline 115 % of control

O=C1C=C(C(=O)O)CO1
inactive: [11] 95 % of control

CC(=O)NC(C)(C)Cc1ccccc1
inactive: dose: 50.0 mg/kg/injection, schedule: Q01DX001 (ip), vehicle: carboxymethylcellulose (CMC) 89 % of control | dose: 100.0 mg/kg/injection, schedule: Q01DX001 (ip), vehicle: carboxymethylcellulose (CMC) 94 % of control | [2] 111 % of control | [5] 101 % of control | dose: 400.0 mg/kg/injection, schedule: Q01DX001 (ip), vehicle: carboxymethylcellulose (CMC) 94 % of control | [7] 86 % of control

Cc1ccc(NC(=O)COc2ccc(Cl)cc2Cl)cc1Cl
inactive: dose: 25.0 mg/kg/injection, schedule: Q01DX009 (ip), vehicle: saline with Tween-80 91 % of control | [9] 89 % of control | [2] 86 % of control | [5] 87 % of control | [7] 88 % of control

COC(=O)C1C2c3ccccc3C(C1C(=O)OC)[n+]1ccccc12 (configuration not stated)
inactive: [12] 95 % of control | [13] 98 % of control

O=C(O)CCS(=O)(=O)c1ccc(N(CCCl)CCCl)cc1
inactive: [3] 107 % of control | [6] 102 % of control | [8] 105 % of control

Cc1ccc([N+](=O)[O-])c(C)c1
inactive: [11] 92 % of control | [12] 105 % of control | dose: 200.0 mg/kg/injection, schedule: Q01DX009 (ip), vehicle: Klucel (hydroxypropylcellulose) (HPC) 96 % of control | [13] 104 % of control | dose: 400.0 mg/kg/injection, schedule: Q01DX009 (ip), vehicle: Klucel (hydroxypropylcellulose) (HPC) 102 % of control | dose: 400.0 mg/kg/injection, schedule: Q04DX003 (ip), vehicle: Klucel (hydroxypropylcellulose) (HPC) 102 % of control

Cc1n[n+]([O-])c(C)cc1Cl
inactive: dose: 100.0 mg/kg/injection, schedule: Q04DX002 (ip), vehicle: Klucel (hydroxypropylcellulose) (HPC) 104 % of control | dose: 200.0 mg/kg/injection, schedule: Q04DX002 (ip), vehicle: Klucel (hydroxypropylcellulose) (HPC) 104 % of control | dose: 400.0 mg/kg/injection, schedule: Q04DX002 (ip), vehicle: Klucel (hydroxypropylcellulose) (HPC) 119 % of control

CC12CC(O)C(C=C1c1ccccc1)C2(C)C (configuration not stated)
inactive: dose: 100.0 mg/kg/injection, schedule: Q04DX002 (ip), vehicle: other 86 % of control | dose: 200.0 mg/kg/injection, schedule: Q04DX002 (ip), vehicle: other 93 % of control | dose: 400.0 mg/kg/injection, schedule: Q04DX002 (ip), vehicle: other 90 % of control

O=C(CCc1ccccc1)NC(=S)Nc1cccc([N+](=O)[O-])c1
inactive: dose: 12.5 mg/kg/injection, schedule: Q01DX009 (ip), vehicle: saline with Tween-80 96 % of control and 98 % of control | [10] 96 % of control | [1] 93 % of control | dose: 100.0 mg/kg/injection, schedule: Q04DX002 (ip), vehicle: alcohol 104 % of control | [3] 91 % of control | [4] 104 % of control | dose: 200.0 mg/kg/injection, schedule: Q04DX002 (ip), vehicle: alcohol 93 % of control and 100 % of control | [6] 86 % of control | dose: 400.0 mg/kg/injection, schedule: Q04DX002 (ip), vehicle: alcohol 96 % of control
